Source: the supplement of paper PMC6045584
± gives the standard deviation of the averaged measurements.

Legend:
[1] = compound: CC(=O)NCC(=O)N1[C@@H]2CC[C@H]1c1ccc(Nc3ncc(C(F)(F)F)c(NC4CCC4)n3)cc12; assay: surviving fraction relative to DMSO-only wells; higher = less growth inhibition; settings: exposure time: 5 days
How it was run: (§1)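 Continuous five-day exposure to inhibitors at 0.5, 1, 5, 10, 50, 100, 500 and 1000 nM started 24 hours after log-phase tumour cell lines were seeded at 250–500 cells per well in 384-well plates. Luminescence was read after 10 minutes at room temperature. Viability is given as surviving fraction, meaning CellTiter-Glo luminescence normalised to the median of DMSO-only wells.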

PACLITAXEL [2] = compound: T1, CC(=O)O[C@H]1C(=O)[C@@]2(C)[C@H]([C@H](OC(=O)c3ccccc3)[C@]3(O)C[C@H](OC(=O)[C@H](O)[C@@H](NC(=O)c4ccccc4)c4ccccc4)C(C)=C1C3(C)C)[C@]1(OC(C)=O)CO[C@@H]1C[C@@H]2O [PACLITAXEL]; assay: as above; settings: exposure time: 5 days
How it was run: as §1

[3] = compound: CC(=O)c1c(C)c2cnc(Nc3ccc(N4CCNCC4)cn3)nc2n(C2CCCC2)c1=O; assay: as above; settings: exposure time: 5 days
How it was run: as §1

CAMPTOTHECIN [4] = compound: T2, CC[C@@]1(O)C(=O)OCc2c1cc1n(c2=O)Cc2cc3ccccc3nc2-1 [CAMPTOTHECIN]; assay: as above; settings: exposure time: 5 days
How it was run: as §1

YM155 [5] = compound: T3, COCC[n+]1c2c(n(Cc3cnccn3)c1C)C(=O)c1ccccc1C2=O [YM155]; assay: as above; settings: exposure time: 5 days
How it was run: as §1

GEFITINIB = compound: COc1cc2ncnc(Nc3ccc(F)c(Cl)c3)c2cc1OCCCN1CCOCC1 [GEFITINIB]; assay: as above; settings: exposure time: 5 days
How it was run: as §1

OSI-906 [6] = compound: T4, C[C@]1(O)C[C@@H](c2nc(-c3ccc4ccc(-c5ccccc5)nc4c3)c3c(N)nccn32)C1 [OSI-906]; assay: as above; settings: exposure time: 5 days
How it was run: as §1

CELECOXIB [7] = compound: T5, Cc1ccc(-c2cc(C(F)(F)F)nn2-c2ccc(S(N)(=O)=O)cc2)cc1 [CELECOXIB]; assay: as above; settings: exposure time: 5 days
How it was run: as §1

CARBOPLATIN [8] = compound: T6, O=C(O)C1(C(=O)O)CCC1.[NH2-].[NH2-].[Pt+2] [CARBOPLATIN]; assay: as above; settings: exposure time: 5 days
How it was run: as §1

PACLITAXEL [9] = compound: T1, PACLITAXEL; assay: area under dose-response curve of surviving fraction (unscaled, Aref=0) (surviving fraction x log10(nM)); higher = more resistant; settings: exposure time: 5 days; dose range 0.5-1000 nM
How it was run: (§2)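 Tumour cell lines in 384-well plates were exposed for five days to eight inhibitor concentrations from 0.5 to 1000 nM. Viability was read by CellTiter-Glo luminescence, normalised to DMSO-only wells, in three screens per line. Dose-response survival curves were fitted to surviving fractions by 3-parameter logistic regression in the drc R package. Area under the curve is the unscaled activity area (Aref = 0) over log10 dose.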

[10] = compound: CC(=O)c1c(C)c2cnc(Nc3ccc(N4CCNCC4)cn3)nc2n(C2CCCC2)c1=O; assay: as above; settings: exposure time: 5 days; dose range 0.5-1000 nM
How it was run: as §2

CAMPTOTHECIN [11] = compound: T2, CAMPTOTHECIN; assay: as above; settings: exposure time: 5 days; dose range 0.5-1000 nM
How it was run: as §2

YM155 [12] = compound: T3, YM155; assay: as above; settings: exposure time: 5 days; dose range 0.5-1000 nM
How it was run: as §2

OSI-906 [13] = compound: T4, OSI-906; assay: as above; settings: exposure time: 5 days; dose range 0.5-1000 nM
How it was run: as §2

CELECOXIB [14] = compound: T5, CELECOXIB; assay: as above; settings: exposure time: 5 days; dose range 0.5-1000 nM
How it was run: as §2

CARBOPLATIN [15] = compound: T6, CARBOPLATIN; assay: as above; settings: exposure time: 5 days; dose range 0.5-1000 nM
How it was run: as §2

**Q.** Which surviving fraction ([1]; 0.5 nM) does the source give for NOS1 BONE here?
**A.** 1.25 ± 0.038

**Q.** What about the surviving fraction ([1]; 1 nM) of the same test system?
**A.** 1.29 ± 0.1

**Q.** What about the surviving fraction ([1]; 5 nM) of the same test system?
**A.** 1.53 ± 0.21

**Q.** What about the surviving fraction ([1]; 10 nM) of the same test system?
**A.** 1.21 ± 0.095

**Q.** And the surviving fraction ([1]; 50 nM)?
**A.** 0.84 ± 0.062

**Q.** What about the surviving fraction ([1]; 100 nM) of the same test system?
**A.** 0.724 ± 0.055

**Q.** And the surviving fraction ([1]; 500 nM)?
**A.** 0.302 ± 0.017

**Q.** What about the surviving fraction ([1]; 1000 nM) of the same test system?
**A.** 0.219 ± 0.028

**Q.** What about the surviving fraction (PACLITAXEL [2]; 0.5 nM) of the same test system?
**A.** 1.08 ± 0.072

**Q.** What about the surviving fraction (PACLITAXEL [2]; 1 nM) of the same test system?
**A.** 0.6 ± 0.053

**Q.** And the surviving fraction (PACLITAXEL [2]; 5 nM)?
**A.** 0.396 ± 0.026

**Q.** What about the surviving fraction (PACLITAXEL [2]; 10 nM) of the same test system?
**A.** 0.304 ± 0.0081

**Q.** And the surviving fraction (PACLITAXEL [2]; 50 nM)?
**A.** 0.287 ± 0.024

**Q.** What about the surviving fraction (PACLITAXEL [2]; 100 nM) of the same test system?
**A.** 0.252 ± 0.013

**Q.** What about the surviving fraction (PACLITAXEL [2]; 500 nM) of the same test system?
**A.** 0.214 ± 0.039

**Q.** What about the surviving fraction (PACLITAXEL [2]; 1000 nM) of the same test system?
**A.** 0.21 ± 0.024

**Q.** What about the surviving fraction ([3]; 0.5 nM) of the same test system?
**A.** 0.935 ± 0.071

**Q.** And the surviving fraction ([3]; 1 nM)?
**A.** 0.997 ± 0.15

**Q.** What about the surviving fraction ([3]; 5 nM) of the same test system?
**A.** 1.17 ± 0.086

**Q.** And the surviving fraction ([3]; 10 nM)?
**A.** 0.969 ± 0.053

**Q.** And the surviving fraction ([3]; 50 nM)?
**A.** 1.07 ± 0.055

**Q.** What about the surviving fraction ([3]; 100 nM) of the same test system?
**A.** 1.11 ± 0.034

**Q.** And the surviving fraction ([3]; 500 nM)?
**A.** 1.09 ± 0.11

**Q.** What about the surviving fraction ([3]; 1000 nM) of the same test system?
**A.** 1.09 ± 0.061

**Q.** And the surviving fraction (CAMPTOTHECIN [4]; 0.5 nM)?
**A.** 0.833 ± 0.15

**Q.** And the surviving fraction (CAMPTOTHECIN [4]; 1 nM)?
**A.** 0.867 ± 0.02

**Q.** What about the surviving fraction (CAMPTOTHECIN [4]; 5 nM) of the same test system?
**A.** 0.663 ± 0.067

**Q.** What about the surviving fraction (CAMPTOTHECIN [4]; 10 nM) of the same test system?
**A.** 0.494 ± 0.059

**Q.** What about the surviving fraction (CAMPTOTHECIN [4]; 50 nM) of the same test system?
**A.** 0.636 ± 0.037

**Q.** What about the surviving fraction (CAMPTOTHECIN [4]; 100 nM) of the same test system?
**A.** 0.552 ± 0.036

**Q.** What about the surviving fraction (CAMPTOTHECIN [4]; 500 nM) of the same test system?
**A.** 0.392 ± 0.039

**Q.** What about the surviving fraction (CAMPTOTHECIN [4]; 1000 nM) of the same test system?
**A.** 0.337 ± 0.026

**Q.** And the surviving fraction (YM155 [5]; 0.5 nM)?
**A.** 1.4 ± 0.44

**Q.** What about the surviving fraction (YM155 [5]; 1 nM) of the same test system?
**A.** 1.03 ± 0.084

**Q.** And the surviving fraction (YM155 [5]; 5 nM)?
**A.** 0.316 ± 0.034

**Q.** And the surviving fraction (YM155 [5]; 10 nM)?
**A.** 0.17 ± 0.025

**Q.** What about the surviving fraction (YM155 [5]; 50 nM) of the same test system?
**A.** 0.0643 ± 0.0076

**Q.** What about the surviving fraction (YM155 [5]; 100 nM) of the same test system?
**A.** 0.048 ± 0.0062

**Q.** What about the surviving fraction (YM155 [5]; 500 nM) of the same test system?
**A.** 0.0337 ± 0.0058

**Q.** And the surviving fraction (YM155 [5]; 1000 nM)?
**A.** 0.0323 ± 0.0025

**Q.** And the surviving fraction (GEFITINIB; 0.5 nM)?
**A.** 1.1 ± 0.073

**Q.** And the surviving fraction (GEFITINIB; 1 nM)?
**A.** 1.11 ± 0.032

**Q.** What about the surviving fraction (GEFITINIB; 5 nM) of the same test system?
**A.** 1.25 ± 0.23

**Q.** And the surviving fraction (GEFITINIB; 10 nM)?
**A.** 1.22 ± 0.29

**Q.** And the surviving fraction (GEFITINIB; 50 nM)?
**A.** 1.17 ± 0.085

**Q.** What about the surviving fraction (GEFITINIB; 100 nM) of the same test system?
**A.** 1.11 ± 0.046

**Q.** And the surviving fraction (GEFITINIB; 500 nM)?
**A.** 0.871 ± 0.048

**Q.** What about the surviving fraction (GEFITINIB; 1000 nM) of the same test system?
**A.** 0.754 ± 0.031

**Q.** What about the surviving fraction (OSI-906 [6]; 0.5 nM) of the same test system?
**A.** 0.916 ± 0.13

**Q.** And the surviving fraction (OSI-906 [6]; 1 nM)?
**A.** 0.944 ± 0.062

**Q.** What about the surviving fraction (OSI-906 [6]; 5 nM) of the same test system?
**A.** 1.16 ± 0.49

**Q.** And the surviving fraction (OSI-906 [6]; 10 nM)?
**A.** 1 ± 0.15

**Q.** What about the surviving fraction (OSI-906 [6]; 50 nM) of the same test system?
**A.** 1 ± 0.059

**Q.** And the surviving fraction (OSI-906 [6]; 100 nM)?
**A.** 0.884 ± 0.057

**Q.** What about the surviving fraction (OSI-906 [6]; 500 nM) of the same test system?
**A.** 0.465 ± 0.028

**Q.** What about the surviving fraction (OSI-906 [6]; 1000 nM) of the same test system?
**A.** 0.462 ± 0.029

**Q.** And the surviving fraction (CELECOXIB [7]; 0.5 nM)?
**A.** 1.18 ± 0.12

**Q.** And the surviving fraction (CELECOXIB [7]; 1 nM)?
**A.** 1.15 ± 0.34

**Q.** And the surviving fraction (CELECOXIB [7]; 5 nM)?
**A.** 1.16 ± 0.071

**Q.** And the surviving fraction (CELECOXIB [7]; 10 nM)?
**A.** 1.25 ± 0.051

**Q.** What about the surviving fraction (CELECOXIB [7]; 50 nM) of the same test system?
**A.** 1.18 ± 0.019

**Q.** And the surviving fraction (CELECOXIB [7]; 100 nM)?
**A.** 1.21 ± 0.054

**Q.** And the surviving fraction (CELECOXIB [7]; 500 nM)?
**A.** 1.12 ± 0.11

**Q.** And the surviving fraction (CELECOXIB [7]; 1000 nM)?
**A.** 1.16 ± 0.075

**Q.** And the surviving fraction (CARBOPLATIN [8]; 0.5 nM)?
**A.** 1.22 ± 0.2

**Q.** What about the surviving fraction (CARBOPLATIN [8]; 1 nM) of the same test system?
**A.** 1.08 ± 0.076

**Q.** And the surviving fraction (CARBOPLATIN [8]; 5 nM)?
**A.** 1.31 ± 0.13

**Q.** And the surviving fraction (CARBOPLATIN [8]; 10 nM)?
**A.** 1.25 ± 0.1

**Q.** And the surviving fraction (CARBOPLATIN [8]; 50 nM)?
**A.** 1.22 ± 0.14

**Q.** What about the surviving fraction (CARBOPLATIN [8]; 100 nM) of the same test system?
**A.** 1.23 ± 0.1

**Q.** What about the surviving fraction (CARBOPLATIN [8]; 500 nM) of the same test system?
**A.** 1.11 ± 0.051

**Q.** And the surviving fraction (CARBOPLATIN [8]; 1000 nM)?
**A.** 0.955 ± 0.073

**Q.** What about the “area under dose-response curve” value (PACLITAXEL [9]) of the same test system?
**A.** 1.13

**Q.** And the “area under dose-response curve” value [10]?
**A.** 3.53

**Q.** What about the “area under dose-response curve” value (CAMPTOTHECIN [11]) of the same test system?
**A.** 1.96

**Q.** What about the “area under dose-response curve” value (YM155 [12]) of the same test system?
**A.** 1.08

**Q.** And the “area under dose-response curve” value (OSI-906 [13])?
**A.** 2.83

**Q.** And the “area under dose-response curve” value (CELECOXIB [14])?
**A.** 3.88

**Q.** And the “area under dose-response curve” value (CARBOPLATIN [15])?
**A.** 3.95
